# In the kinase profiling compilation of Christmann-Franck et al. (2016):
# Several values for one entry are separate records, joined by “and”; a condition that tells them apart may be missing. Identical values can stand only once.
# What was measured:
# Experiment in all cases: KINOMEscan competition binding
# Conditions in all cases: compound 1.0 µM
# [1] = target: CLK2 (human) (UniProt P49760)
# [2] = target: FES (human) (UniProt P07332)
# [3] = target: CHEK1 (human) (UniProt O14757)
# [4] = target: PIM2 (human) (UniProt Q9P1W9)
# [5] = target: NEK6 (human) (UniProt Q9HC98)
# [6] = target: CSNK2A2 (human) (UniProt P19784)
# [7] = target: AAK1 (human) (UniProt Q2M2I8)
# [8] = target: GSK3B (human) (UniProt P49841)
# [9] = target: NLK (human) (UniProt Q9UBE8)
# [10] = target: HIPK4 (human) (UniProt Q8NE63)
# [11] = target: PRKG1 (human) (UniProt Q13976)
# [12] = target: PRKAA1 (human) (UniProt Q13131)
# [13] = target: DDR2 (human) (UniProt Q16832)
# [14] = target: MAP3K3 (human) (UniProt Q99759)
# [15] = target: STK39 (human) (UniProt Q9UEW8)
# [16] = target: STK11 (human) (UniProt Q15831)
# [17] = target: AKT1 (human) (UniProt P31749)
# [18] = target: PTK2 (human) (UniProt Q05397)
# [19] = target: MAPK7 (human) (UniProt Q13164)
# [20] = target: AXL (human) (UniProt P30530)
# [21] = target: MERTK (human) (UniProt Q12866)
# [22] = target: ERBB3 (human) (UniProt P21860)
# [23] = target: DAPK2 (human) (UniProt Q9UIK4)
# [24] = target: AURKB (human) (UniProt Q96GD4)
# [25] = target: NUAK2 (human) (UniProt Q9H093)
# [26] = target: STK25 (human) (UniProt O00506)
# [27] = test system: EGFR (human), P00533 [A750P; 747-749 del]
# [28] = target: MAPK6 (human) (UniProt Q16659)
# [29] = target: PAK2 (human) (UniProt Q13177)
# [30] = target: LCK (human) (UniProt P06239)
# [31] = target: CDK7 (human) (UniProt P50613)
# [32] = target: RPS6KA1 KD2 (human) (UniProt Q15418)
# [33] = target: CAMK2D (human) (UniProt Q13557)
# [34] = target: EPHA8 (human) (UniProt P29322)
# [35] = target: CSNK2A1 (human) (UniProt P68400)
# [36] = target: TAOK1 (human) (UniProt Q7L7X3)
# [37] = target: MAP3K9 (human) (UniProt P80192)
# [38] = target: STK3 (human) (UniProt Q13188)
# [39] = target: BRSK2 (human) (UniProt Q8IWQ3)
# [40] = target: MYLK (human) (UniProt Q15746)
# Sequence of TAOK1 (human) (Q7L7X3 whole entry, looked up): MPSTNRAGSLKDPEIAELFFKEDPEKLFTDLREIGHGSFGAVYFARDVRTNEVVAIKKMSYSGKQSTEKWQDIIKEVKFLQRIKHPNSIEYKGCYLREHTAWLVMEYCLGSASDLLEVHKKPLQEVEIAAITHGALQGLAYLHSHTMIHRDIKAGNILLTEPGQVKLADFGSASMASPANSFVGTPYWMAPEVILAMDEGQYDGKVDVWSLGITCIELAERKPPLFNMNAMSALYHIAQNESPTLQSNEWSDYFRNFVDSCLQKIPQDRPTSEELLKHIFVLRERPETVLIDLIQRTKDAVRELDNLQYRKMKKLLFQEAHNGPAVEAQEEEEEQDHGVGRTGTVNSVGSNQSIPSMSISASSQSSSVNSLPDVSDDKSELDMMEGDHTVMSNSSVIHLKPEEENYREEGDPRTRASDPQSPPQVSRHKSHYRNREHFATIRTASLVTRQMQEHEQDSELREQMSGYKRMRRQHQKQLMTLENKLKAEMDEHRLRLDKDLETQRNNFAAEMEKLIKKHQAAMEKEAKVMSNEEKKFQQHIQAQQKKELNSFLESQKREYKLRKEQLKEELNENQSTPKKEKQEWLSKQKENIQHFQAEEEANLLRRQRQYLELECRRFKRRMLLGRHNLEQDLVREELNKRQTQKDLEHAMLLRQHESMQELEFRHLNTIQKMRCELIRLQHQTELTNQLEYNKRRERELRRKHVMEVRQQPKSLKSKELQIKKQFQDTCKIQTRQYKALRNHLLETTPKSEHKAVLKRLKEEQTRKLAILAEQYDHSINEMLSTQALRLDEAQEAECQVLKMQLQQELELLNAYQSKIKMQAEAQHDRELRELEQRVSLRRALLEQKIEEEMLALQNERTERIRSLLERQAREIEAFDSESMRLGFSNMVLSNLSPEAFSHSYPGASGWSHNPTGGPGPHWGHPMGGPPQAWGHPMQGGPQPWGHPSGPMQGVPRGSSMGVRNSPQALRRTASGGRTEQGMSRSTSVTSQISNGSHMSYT
# Sequence of CDK7 (human) (P50613 whole entry, looked up): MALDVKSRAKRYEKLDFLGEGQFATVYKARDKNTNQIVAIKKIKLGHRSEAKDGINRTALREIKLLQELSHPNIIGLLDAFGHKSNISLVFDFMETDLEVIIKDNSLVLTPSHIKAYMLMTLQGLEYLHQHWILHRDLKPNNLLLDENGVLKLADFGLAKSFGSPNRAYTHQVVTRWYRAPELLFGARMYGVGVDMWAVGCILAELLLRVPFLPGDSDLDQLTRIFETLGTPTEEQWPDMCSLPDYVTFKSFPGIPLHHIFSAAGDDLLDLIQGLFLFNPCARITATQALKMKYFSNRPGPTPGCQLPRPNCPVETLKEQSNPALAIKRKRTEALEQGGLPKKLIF
# Sequence of EGFR (human), P00533 [A750P; 747-749 del] (P00533 whole entry, looked up, stated change not applied): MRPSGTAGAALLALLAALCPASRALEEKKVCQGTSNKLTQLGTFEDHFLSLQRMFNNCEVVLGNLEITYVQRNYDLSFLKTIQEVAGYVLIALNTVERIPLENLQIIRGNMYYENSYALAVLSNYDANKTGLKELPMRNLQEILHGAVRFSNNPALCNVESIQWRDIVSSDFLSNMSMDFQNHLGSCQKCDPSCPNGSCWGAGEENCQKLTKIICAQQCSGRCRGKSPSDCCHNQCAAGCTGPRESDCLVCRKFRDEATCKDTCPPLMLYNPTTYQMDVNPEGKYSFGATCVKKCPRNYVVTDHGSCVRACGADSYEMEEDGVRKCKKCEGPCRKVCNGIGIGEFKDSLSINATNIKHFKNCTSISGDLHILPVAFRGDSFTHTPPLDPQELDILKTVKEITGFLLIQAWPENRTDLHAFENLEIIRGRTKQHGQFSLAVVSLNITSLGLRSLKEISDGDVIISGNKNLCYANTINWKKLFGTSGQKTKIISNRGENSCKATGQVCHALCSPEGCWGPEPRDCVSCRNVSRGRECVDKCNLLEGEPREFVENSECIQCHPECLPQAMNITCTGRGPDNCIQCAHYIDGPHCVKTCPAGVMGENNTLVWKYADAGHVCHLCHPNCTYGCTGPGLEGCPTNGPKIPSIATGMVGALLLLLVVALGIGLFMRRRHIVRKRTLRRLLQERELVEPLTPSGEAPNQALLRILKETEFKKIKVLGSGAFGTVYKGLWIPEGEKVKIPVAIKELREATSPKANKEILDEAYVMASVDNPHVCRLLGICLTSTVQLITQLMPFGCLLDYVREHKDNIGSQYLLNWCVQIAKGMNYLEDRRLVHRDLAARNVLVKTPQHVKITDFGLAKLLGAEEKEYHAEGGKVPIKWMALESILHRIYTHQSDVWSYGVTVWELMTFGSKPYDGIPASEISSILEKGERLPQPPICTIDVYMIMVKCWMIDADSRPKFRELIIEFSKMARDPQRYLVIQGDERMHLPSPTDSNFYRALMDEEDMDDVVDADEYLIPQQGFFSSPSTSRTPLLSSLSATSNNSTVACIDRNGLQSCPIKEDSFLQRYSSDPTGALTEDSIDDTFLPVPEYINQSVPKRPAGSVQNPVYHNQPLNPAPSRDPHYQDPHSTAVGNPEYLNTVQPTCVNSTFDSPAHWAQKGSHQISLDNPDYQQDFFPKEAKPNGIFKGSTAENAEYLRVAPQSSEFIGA
# Sequence of PRKAA1 (human) (Q13131 whole entry, looked up): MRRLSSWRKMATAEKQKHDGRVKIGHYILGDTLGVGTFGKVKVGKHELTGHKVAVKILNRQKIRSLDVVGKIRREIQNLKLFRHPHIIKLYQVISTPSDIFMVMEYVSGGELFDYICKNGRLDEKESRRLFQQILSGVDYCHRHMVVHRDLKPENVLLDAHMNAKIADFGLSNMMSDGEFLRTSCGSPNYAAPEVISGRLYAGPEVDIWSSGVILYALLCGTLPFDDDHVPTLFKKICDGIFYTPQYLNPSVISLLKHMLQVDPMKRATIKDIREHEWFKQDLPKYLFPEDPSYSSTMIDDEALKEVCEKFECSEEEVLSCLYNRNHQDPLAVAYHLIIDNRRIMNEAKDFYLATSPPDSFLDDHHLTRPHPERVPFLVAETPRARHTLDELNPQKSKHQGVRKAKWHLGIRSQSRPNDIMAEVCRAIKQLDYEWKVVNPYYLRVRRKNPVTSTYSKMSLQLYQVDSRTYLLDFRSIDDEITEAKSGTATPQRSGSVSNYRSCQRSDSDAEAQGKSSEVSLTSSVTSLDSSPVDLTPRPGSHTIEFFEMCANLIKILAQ
# Sequence of NUAK2 (human) (Q9H093 whole entry, looked up): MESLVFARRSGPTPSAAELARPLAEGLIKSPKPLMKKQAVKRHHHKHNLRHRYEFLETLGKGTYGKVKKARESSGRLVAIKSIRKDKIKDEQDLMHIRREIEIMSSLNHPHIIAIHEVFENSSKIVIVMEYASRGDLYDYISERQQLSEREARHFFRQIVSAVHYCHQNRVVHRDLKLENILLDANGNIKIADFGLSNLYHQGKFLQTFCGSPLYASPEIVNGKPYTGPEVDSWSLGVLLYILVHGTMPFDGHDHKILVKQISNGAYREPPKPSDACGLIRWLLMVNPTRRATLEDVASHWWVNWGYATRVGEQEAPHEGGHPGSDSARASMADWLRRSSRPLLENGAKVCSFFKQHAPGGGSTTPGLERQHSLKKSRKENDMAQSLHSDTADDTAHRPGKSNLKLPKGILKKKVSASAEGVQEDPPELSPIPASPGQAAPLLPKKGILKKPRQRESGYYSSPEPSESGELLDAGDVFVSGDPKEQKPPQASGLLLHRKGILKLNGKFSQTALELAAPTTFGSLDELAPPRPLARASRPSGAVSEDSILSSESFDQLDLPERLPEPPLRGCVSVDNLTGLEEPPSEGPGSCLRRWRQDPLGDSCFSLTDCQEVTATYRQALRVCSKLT
# Sequence of CSNK2A2 (human) (P19784 whole entry, looked up): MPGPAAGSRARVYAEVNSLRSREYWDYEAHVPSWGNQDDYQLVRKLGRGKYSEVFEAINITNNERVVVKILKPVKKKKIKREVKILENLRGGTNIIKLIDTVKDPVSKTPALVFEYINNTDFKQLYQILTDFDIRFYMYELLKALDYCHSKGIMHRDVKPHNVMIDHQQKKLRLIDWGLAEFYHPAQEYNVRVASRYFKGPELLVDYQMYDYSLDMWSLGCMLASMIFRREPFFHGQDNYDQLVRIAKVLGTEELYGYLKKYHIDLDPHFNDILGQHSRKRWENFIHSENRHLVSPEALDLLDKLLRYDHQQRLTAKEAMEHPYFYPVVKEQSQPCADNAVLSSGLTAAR
# Sequence of HIPK4 (human) (Q8NE63 whole entry, looked up): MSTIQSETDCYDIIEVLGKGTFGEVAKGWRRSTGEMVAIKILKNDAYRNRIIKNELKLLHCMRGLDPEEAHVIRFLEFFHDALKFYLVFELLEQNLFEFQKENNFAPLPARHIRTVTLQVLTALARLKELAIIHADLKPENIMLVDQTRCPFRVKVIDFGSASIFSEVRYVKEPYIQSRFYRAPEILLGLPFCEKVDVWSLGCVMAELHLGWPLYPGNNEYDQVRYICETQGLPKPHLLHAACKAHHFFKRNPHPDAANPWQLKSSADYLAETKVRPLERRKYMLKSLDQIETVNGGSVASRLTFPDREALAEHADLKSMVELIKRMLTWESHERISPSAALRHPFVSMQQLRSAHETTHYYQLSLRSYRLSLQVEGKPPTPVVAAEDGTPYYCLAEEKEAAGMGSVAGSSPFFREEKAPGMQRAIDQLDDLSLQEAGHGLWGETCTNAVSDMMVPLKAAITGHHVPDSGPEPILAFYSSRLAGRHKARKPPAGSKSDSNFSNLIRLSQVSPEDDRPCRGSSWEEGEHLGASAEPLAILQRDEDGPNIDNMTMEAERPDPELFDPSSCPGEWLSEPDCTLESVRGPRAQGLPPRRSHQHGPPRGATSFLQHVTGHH
# Sequence of PIM2 (human) (Q9P1W9 whole entry, looked up): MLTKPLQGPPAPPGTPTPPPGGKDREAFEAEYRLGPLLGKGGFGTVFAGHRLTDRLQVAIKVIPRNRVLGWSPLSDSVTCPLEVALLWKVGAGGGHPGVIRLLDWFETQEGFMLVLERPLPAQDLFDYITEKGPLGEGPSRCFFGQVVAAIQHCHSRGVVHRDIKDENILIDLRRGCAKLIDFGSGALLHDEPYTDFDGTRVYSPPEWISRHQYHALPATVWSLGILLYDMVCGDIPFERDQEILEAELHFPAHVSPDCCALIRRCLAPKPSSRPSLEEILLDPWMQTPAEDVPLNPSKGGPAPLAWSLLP
smiles,measurement,setting,value
Nc1cc(C(F)(F)F)c(-c2cc(N3CCOCC3)nc(N3CCOCC3)n2)cn1,inhibition of binding,[1],0%
same,inhibition of binding,[2],0%
same,inhibition of binding,[3],1%
same,inhibition of binding,[4],0%
same,inhibition of binding,[5],0%
same,inhibition of binding,[6],2%
same,inhibition of binding,[7],0%
same,inhibition of binding,[8],0%
same,inhibition of binding,[9],0%
same,inhibition of binding,[10],21%
same,inhibition of binding,[11],0%
same,inhibition of binding,[12],3%
same,inhibition of binding,[13],19%
same,inhibition of binding,[14],0%
same,inhibition of binding,[15],2%
same,inhibition of binding,[16],0%
same,inhibition of binding,[17],0%
same,inhibition of binding,[18],21%
same,inhibition of binding,[19],0%
same,inhibition of binding,[20],7%
same,inhibition of binding,[21],0%
same,inhibition of binding,[22],22%
same,inhibition of binding,[23],13%
same,inhibition of binding,[24],0%
same,inhibition of binding,[25],0%
same,inhibition of binding,[26],0%
same,inhibition of binding,[27],0%
same,inhibition of binding,[28],0%
same,inhibition of binding,[29],17%
same,inhibition of binding,[30],0%
same,inhibition of binding,[31],0%
same,inhibition of binding,[32],23%
same,inhibition of binding,[33],0%
same,inhibition of binding,[34],0%
same,inhibition of binding,[35],0%
same,inhibition of binding,[36],0% and 2%
same,inhibition of binding,[37],18%
same,inhibition of binding,[38],0%
same,inhibition of binding,[39],0%
same,inhibition of binding,[40],12%
